From US20110200535A1, “DAA-PYRIDINE AS PERIPHERAL BENZODIAZEPINE RECEPTOR LIGAND FOR DIAGNOSTIC IMAGING AND PHARMACEUTICAL TREATMENT” (BAYER SCHERING PHARMA AKTIENGESELLSCHAFT, priority 2008, published 2011)
Where “and” joins values, the source holds several entries; their conditions need not be identical. Equal entries are not always repeated.

Experiments:
Format in all cases: in vivo
[1] = Biodistribution of [^18F]-radioactivity in healthy male NMRI mice after intravenous injection (gamma counter); conditions: for Elimination from mouse brain, 2 min/30 min ratio of brain uptake (% ID/g): 2 min to 30 min; for [^18F]-radioactivity in adrenals / [^18F]-radioactivity in blood / [^18F]-radioactivity in bone / [^18F]-radioactivity in brain (brain uptake) / [^18F]-radioactivity in fat / [^18F]-radioactivity in heart / [^18F]-radioactivity in intestine / [^18F]-radioactivity in kidney / [^18F]-radioactivity in liver / [^18F]-radioactivity in lung / [^18F]-radioactivity in muscle / [^18F]-radioactivity in pancreas / [^18F]-radioactivity in skin / [^18F]-radioactivity in spleen / [^18F]-radioactivity in stomach / [^18F]-radioactivity in testes / [^18F]-radioactivity in thyroid: normal mice, i.v., decay corrected
Method: (§1) The biodistribution of [^18F]-2d and [^18F]-5d was investigated in healthy male NMRI mice (28.3-35.6 g body weight, n=3 animals per time point) at 2, 5, 30, 60 and 180/240 min after intravenous injection of 0.264 MBq [^18F]-2d and 0.268 MBq [^18F]-5d per animal, respectively. Until the indicated time points urine and faeces were quantitatively collected. At the respective time points the mice were sacrificed and the tissues were removed. [^18F]-radioactivity was analyzed in a gamma counter (Tab. 1.1, 2.1 and 1.2, 2.2).

[2] = Excretion of [^18F]-radioactivity via urine and faeces in normal mice (gamma counter); conditions: i.v., decay corrected
Method: as §1

[3] = target: T1, peripheral benzodiazepine receptor (PBR) (Rattus norvegicus, UniProt P16257); assay: Ex vivo autoradiography of brain sections, rat kainic acid induced epilepsy model; conditions: for Hipp/Cereb ratio (signal-to-background ratio, hippocampus/cerebellum): rat kainic acid model, 30 min ex vivo autoradiography
T1 construct: from tissue; host or cells: rat brain (hippocampus, cerebellum) after i.v. tracer injection
Method: Using a rat kainic acid induced epilepsy model and respective sham controls the accumulation of [^18F]-2d and [^18F]-5d was visualized ex vivo. In brief, epilepsy was induced in rats by injecting kainic acid i.p. At day eight after the start of the kainic acid treatment [^18F]-2d and [^18F]-5d were injected into the tail vein of the rats and their sham treated controls (PBS instead of kainic acid) at a dose of 25.8-35.8 MBq (approximately 1.0 μg) per rat. Thirty minutes after intravenous injection the rats were sacrificed, the brains were taken out, snap frozen and sliced transversally in a cryostat. The slices were exposed to PhosphoImager plates over night. The resulting autoradiographic signals were analyzed qualitatively and quantitatively (FIG. 2.1 A and C, 2.2 A and C). […] To determine the specificity of the [^18F]-2d and [^18F]-5d binding, kainic acid treated rats were co-injected with [^19F]-2e and [^19F]-5e, respectively.
The autoradiographic signals were quantified. The signal intensity in a hippocampal region of interest (ROI) was measured and compared to a ROI in the cerebellum, that was used as reference region.

## COc1ccc(Oc2ncccc2N(Cc2cc(OC)ccc2OCC[18F])C(C)=O)cc1 [[^18F]-2d, N-[2-(2-[^18F]fluoroethoxy)-5-methoxybenzyl]-N-[2-(4-methoxyphenoxy)pyridin-3-yl]acetamide]
[1]; mice, 30 min p.i.
  Initial elimination of the radioactivity from the brain: ca. 72%
[1]; mice
  Elimination from mouse brain, 2 min/30 min ratio of brain uptake (% ID/g): 3.7
[1]; 2 min
  [^18F]-radioactivity in adrenals: 7.37 ± 2.53 % injected dose/g
  [^18F]-radioactivity in blood: 2.35 ± 0.15 % injected dose/g
  [^18F]-radioactivity in bone: 0.87 ± 0.11 % injected dose/g
  [^18F]-radioactivity in brain (brain uptake): 1.37±0.04 % injected dose/g
  [^18F]-radioactivity in fat: 0.41 ± 0.49 % injected dose/g
  [^18F]-radioactivity in heart: 16.53 ± 0.48 % injected dose/g
  [^18F]-radioactivity in intestine: 0.82 ± 0.04 % injected dose/g
  [^18F]-radioactivity in kidney: 5.92 ± 1.40 % injected dose/g
  [^18F]-radioactivity in liver: 1.20 ± 0.28 % injected dose/g
  [^18F]-radioactivity in lung: 61.50 ± 10.42 % injected dose/g
  [^18F]-radioactivity in muscle: 1.23 ± 0.47 % injected dose/g
  [^18F]-radioactivity in pancreas: 1.91 ± 0.33 % injected dose/g
  [^18F]-radioactivity in skin: 0.51 ± 0.14 % injected dose/g
  [^18F]-radioactivity in spleen: 1.50 ± 0.20 % injected dose/g
  [^18F]-radioactivity in stomach: 2.15 ± 1.25 % injected dose/g
  [^18F]-radioactivity in testes: 0.48 ± 0.10 % injected dose/g
  [^18F]-radioactivity in thyroid: 2.15 ± 1.49 % injected dose/g
[1]; 5 min
  [^18F]-radioactivity in adrenals: 10.39 ± 3.44 % injected dose/g
  [^18F]-radioactivity in blood: 1.44 ± 0.07 % injected dose/g
  [^18F]-radioactivity in bone: 1.30 ± 0.02 % injected dose/g
  [^18F]-radioactivity in brain (brain uptake): 0.95 ± 0.07 % injected dose/g
  [^18F]-radioactivity in fat: 0.25 ± 0.06 % injected dose/g
  [^18F]-radioactivity in heart: 17.09 ± 0.64 % injected dose/g
  [^18F]-radioactivity in intestine: 1.36 ± 0.33 % injected dose/g
  [^18F]-radioactivity in kidney: 7.45 ± 1.00 % injected dose/g
  [^18F]-radioactivity in liver: 1.41 ± 0.26 % injected dose/g
  [^18F]-radioactivity in lung: 34.75 ± 6.56 % injected dose/g
  [^18F]-radioactivity in muscle: 1.58 ± 0.52 % injected dose/g
  [^18F]-radioactivity in pancreas: 2.23 ± 0.60 % injected dose/g
  [^18F]-radioactivity in skin: 0.60 ± 0.11 % injected dose/g
  [^18F]-radioactivity in spleen: 4.78 ± 0.73 % injected dose/g
  [^18F]-radioactivity in stomach: 1.89 ± 1.77 % injected dose/g
  [^18F]-radioactivity in testes: 0.50 ± 0.15 % injected dose/g
  [^18F]-radioactivity in thyroid: 2.65 ± 0.58 % injected dose/g
[1]; 30 min
  [^18F]-radioactivity in adrenals: 15.51 ± 0.48 % injected dose/g
  [^18F]-radioactivity in blood: 0.70 ± 0.14 % injected dose/g
  [^18F]-radioactivity in bone: 1.67 ± 0.32 % injected dose/g
  [^18F]-radioactivity in brain (brain uptake): 0.37±0.04 % injected dose/g
  [^18F]-radioactivity in fat: 0.46 ± 0.10 % injected dose/g
  [^18F]-radioactivity in heart: 7.94 ± 1.52 % injected dose/g
  [^18F]-radioactivity in intestine: 2.15 ± 0.62 % injected dose/g
  [^18F]-radioactivity in kidney: 10.99 ± 1.08 % injected dose/g
  [^18F]-radioactivity in liver: 1.61 ± 0.43 % injected dose/g
  [^18F]-radioactivity in lung: 10.66 ± 0.71 % injected dose/g
  [^18F]-radioactivity in muscle: 1.80 ± 0.17 % injected dose/g
  [^18F]-radioactivity in pancreas: 2.85 ± 0.03 % injected dose/g
  [^18F]-radioactivity in skin: 0.98 ± 0.06 % injected dose/g
  [^18F]-radioactivity in spleen: 6.98 ± 0.82 % injected dose/g
  [^18F]-radioactivity in stomach: 3.49 ± 0.45 % injected dose/g
  [^18F]-radioactivity in testes: 0.79 ± 0.11 % injected dose/g
  [^18F]-radioactivity in thyroid: 3.95 ± 0.81 % injected dose/g
[1]; 60 min
  [^18F]-radioactivity in adrenals: 23.01 ± 8.20 % injected dose/g
  [^18F]-radioactivity in blood: 0.60 ± 0.09 % injected dose/g
  [^18F]-radioactivity in bone: 1.75 ± 0.09 % injected dose/g
  [^18F]-radioactivity in brain (brain uptake): 0.34 ± 0.02 % injected dose/g
  [^18F]-radioactivity in fat: 0.49 ± 0.06 % injected dose/g
  [^18F]-radioactivity in heart: 5.22 ± 0.61 % injected dose/g
  [^18F]-radioactivity in intestine: 2.33 ± 0.34 % injected dose/g
  [^18F]-radioactivity in kidney: 11.04 ± 0.48 % injected dose/g
  [^18F]-radioactivity in liver: 1.56 ± 0.22 % injected dose/g
  [^18F]-radioactivity in lung: 6.31 ± 0.34 % injected dose/g
  [^18F]-radioactivity in muscle: 2.34 ± 0.23 % injected dose/g
  [^18F]-radioactivity in pancreas: 2.56 ± 0.26 % injected dose/g
  [^18F]-radioactivity in skin: 1.14 ± 0.06 % injected dose/g
  [^18F]-radioactivity in spleen: 6.09 ± 0.50 % injected dose/g
  [^18F]-radioactivity in stomach: 4.37 ± 0.51 % injected dose/g
  [^18F]-radioactivity in testes: 0.84 ± 0.09 % injected dose/g
  [^18F]-radioactivity in thyroid: 3.88 ± 0.10 % injected dose/g
[1]; 180 min
  [^18F]-radioactivity in adrenals: 13.74 ± 7.36 % injected dose/g
  [^18F]-radioactivity in blood: 0.66 ± 0.09 % injected dose/g
  [^18F]-radioactivity in bone: 2.3 % injected dose/g and 2.25 ± 0.20 % injected dose/g
  [^18F]-radioactivity in brain (brain uptake): 0.35 ± 0.02 % injected dose/g
  [^18F]-radioactivity in fat: 2.02 ± 1.06 % injected dose/g
  [^18F]-radioactivity in heart: 2.78 ± 0.18 % injected dose/g
  [^18F]-radioactivity in intestine: 4.28 ± 0.94 % injected dose/g
  [^18F]-radioactivity in kidney: 10.63 ± 1.41 % injected dose/g
  [^18F]-radioactivity in liver: 1.29 ± 0.20 % injected dose/g
  [^18F]-radioactivity in lung: 4.57 ± 1.44 % injected dose/g
  [^18F]-radioactivity in muscle: 1.84 ± 0.29 % injected dose/g
  [^18F]-radioactivity in pancreas: 1.76 ± 0.40 % injected dose/g
  [^18F]-radioactivity in skin: 1.60 ± 0.19 % injected dose/g
  [^18F]-radioactivity in spleen: 4.07 ± 0.51 % injected dose/g
  [^18F]-radioactivity in stomach: 4.37 ± 0.68 % injected dose/g
  [^18F]-radioactivity in testes: 1.14 ± 0.11 % injected dose/g
  [^18F]-radioactivity in thyroid: 3.91 ± 0.75 % injected dose/g
[2]; 2 min
  Excretion of [^18F]-radioactivity via faeces: 0.00 ± 0.00 % injected dose
  Excretion of [^18F]-radioactivity via urine: 0.02 ± 0.01 % injected dose
[2]; 5 min
  Excretion of [^18F]-radioactivity via faeces: 0.02 ± 0.03 % injected dose
  Excretion of [^18F]-radioactivity via urine: 0.02 ± 0.01 % injected dose
[2]; 30 min
  Excretion of [^18F]-radioactivity via faeces: 0.01 ± 0.00 % injected dose
  Excretion of [^18F]-radioactivity via urine: 1.72 ± 0.08 % injected dose
[2]; 60 min
  Excretion of [^18F]-radioactivity via faeces: 0.03 ± 0.03 % injected dose
  Excretion of [^18F]-radioactivity via urine: 4.21 ± 0.39 % injected dose
[2]; 180 min
  Excretion of [^18F]-radioactivity via faeces: 0.59±0.61 % injected dose
  Excretion of [^18F]-radioactivity via urine: 13.09±1.33 % injected dose
[3]; kainic acid treated rats, co-injected with [^19F]-2e and [^19F]-5e, respectively
  Specificity of binding: autoradiographic signal on co-injection of the corresponding [^19F] compound: significantly reduced autoradiographic signal
[3]
  Hipp/Cereb ratio (signal-to-background ratio, hippocampus/cerebellum): 5.6 ± 1.8

## COc1ccc(OCC[18F])c(CN(C(C)=O)c2cc(F)ccc2Oc2ccccc2)c1 [[^18F]-FEDAA1106, reference compound]
[1]; mice
  Elimination from mouse brain, 2 min/30 min ratio of brain uptake (% ID/g): 2.0
[1]; mice, listed as FEDAA
  Elimination from mouse brain, 2 min/30 min ratio of brain uptake (% ID/g): 2.00
[3]
  Hipp/Cereb ratio (signal-to-background ratio, hippocampus/cerebellum): 1.2±0.2

## COc1ccc(OCC[18F])c(CN(C(C)=O)c2cccnc2Cc2ccc(F)cc2)c1 [compound 21]
[1]; mice
  Elimination from mouse brain, 2 min/30 min ratio of brain uptake (% ID/g): 4.85
